Experimental data: patent US20190382396A1, “SALTS OF BICYCLO[1.1.1]PENTANE INHIBITORS OF DUAL LEUCINE ZIPPER (DLK) KINASE FOR THE TREATMENT OF DISEASE” (Board of Regents, The University of Texas System, priority 2018, published 2019)
Like-named read-outs stand apart in the source and are kept apart here.

What was measured:
Format in all cases: physicochemical
[1] = Stability (50° C., 40° C./75% RH, light; 1 week); conditions: for XRPD change? / purity: bulk, 1 week; for initial purity: initial (before storage)
Description: The stability of the free base 1 and the selected salts 8, 9, 10, and 11 was evaluated. For each material, aliquots were set up at each of conditions (50° C., 40° C./75% RH, light) at given time points (initial and 1 week). PXRD diffractograms of the hydrogen fumarate salt 11 is shown in FIG. 17, with trace (a) showing the initial salt, trace (b) showing the salt after light treatment, trace (c) showing the salt after storage at 40° C. and 75% relative humidity for 1 week, and (d) showing the salt after storage at 50° C. for 1 week.

[2] = Solubility in physiologically relevant solutions (SGF, FaSSIF, FeSSIF); conditions: 25±0.5° C.; for solubility at 24 h: 25 °C, thermodynamic from solid
Description: Solubility of the free base 1 and the selected salts 8, 9, 10, and 11 in physiologically relevant solutions were examined. For each material, aliquots were added to 2 ml vials containing 500 uL of either SGF, FaSSIF, or FeSSIF, which were then sealed. The mixtures were kept shaking by thermomixer at 700 rpm, 25±0.5° C. for 24 h to facilitate the dissolution and then centrifuged by 96-well plates at 3000 rpm for 2 min. The filter liquors were diluted with diluents (ACN/water, 50/50) and analyzed by HPLC.

[3] = Dynamic vapor sorption (DVS), hygroscopicity; conditions: for Maximum sorption / Hygroscopicity (0-40% RH) / Hygroscopicity (0-90% RH) / Change in mass, Desorption / Change in mass, Sorption / Change in mass, Hysteresis: DVS; for Maximum sorption / Hygroscopicity (0-40% RH) / Hygroscopicity (0-90% RH): 25° C.; for Hygroscopicity; form change: form change after DVS
Description: Dynamic vapor sorption (“DVS”) was performed at 25° C., using approx 10-15 mg of sample and N2 gas at a flow rate of 200 mL/min, dm/dt=0.01% min, minimum dm/dt stability duration of 10 min, max equilibration time of 180 min, drying at 0% RH for 120 min, scanning from 0% RH to 90% RH to 0% RH with a step size of 10% RH.
Total cycling time varied, but in all cases was about 200-250 min.

[4] = simulated gastric fluid, SGF, read-out: Solubility SGF Conc
[5] = FaSSIF, read-out: Solubility FaSSIF Conc
[6] = FeSSIF, read-out: Solubility FeSSIF Conc

Structure (SMILES): CC(C)c1nc(-c2cnc(N)c(OC(F)(F)F)c2)cn1C12CC(N3CCOCC3)(C1)C2.O=C(O)CC(O)(CC(=O)O)C(=O)O [Example 8, 5-(2-isopropyl-1-(3-morpholinobicyclo[1.1.1]pentan-1-yl)-1H-imidazol-4-yl)-3-(trifluoromethoxy)pyridin-2-amine dihydrogen citrate]
- XRPD change? ([1]; 40° C., 75% RH): no
- purity ([1]; 40° C., 75% RH): 99.41%
- XRPD change? ([1]; 50° C.): no
- purity ([1]; 50° C.): 98.91%
- initial purity [1]: 99.58%
- XRPD change? ([1]; light): no
- purity ([1]; light): 99.44%
- solubility at 24 h [2, 4]: 6330 µg/mL
- solubility at 24 h [2, 5]: 113 µg/mL
- solubility at 24 h [2, 6]: 773 µg/mL
- FaSSIF pH after 24 h ([2]; FaSSIF): 5.53
- FeSSIF pH after 24 h ([2]; FeSSIF): 4.86
- SGF pH after 24 h ([2]; SGF): 3.26
- Maximum sorption [3]: 0.60%
- Hygroscopicity (0-40% RH) [3]: 0.17%
- Hygroscopicity (0-90% RH) [3]: 0.6%
- Change in mass, Desorption ([3]; Target % P/P0 0.0): 0.0373%
- Change in mass, Sorption ([3]; Target % P/P0 0.0): 0.0000%
- Change in mass, Desorption ([3]; Target % P/P0 10.0): 0.0913%
- Change in mass, Hysteresis ([3]; Target % P/P0 10.0): 0.0426%
- Change in mass, Sorption ([3]; Target % P/P0 10.0): 0.0487%
- Change in mass, Desorption ([3]; Target % P/P0 20.0): 0.1293%
- Change in mass, Hysteresis ([3]; Target % P/P0 20.0): 0.0411%
- Change in mass, Sorption ([3]; Target % P/P0 20.0): 0.0882%
- Change in mass, Desorption ([3]; Target % P/P0 30.0): 0.1757%
- Change in mass, Hysteresis ([3]; Target % P/P0 30.0): 0.0502%
- Change in mass, Sorption ([3]; Target % P/P0 30.0): 0.1255%
- Change in mass, Desorption ([3]; Target % P/P0 40.0): 0.2145%
- Change in mass, Hysteresis ([3]; Target % P/P0 40.0): 0.0418%
- Change in mass, Sorption ([3]; Target % P/P0 40.0): 0.1727%
- Change in mass, Desorption ([3]; Target % P/P0 50.0): 0.2609%
- Change in mass, Hysteresis ([3]; Target % P/P0 50.0): 0.0418%
- Change in mass, Sorption ([3]; Target % P/P0 50.0): 0.2191%
- Change in mass, Desorption ([3]; Target % P/P0 60.0): 0.3119%
- Change in mass, Hysteresis ([3]; Target % P/P0 60.0): 0.0388%
- Change in mass, Sorption ([3]; Target % P/P0 60.0): 0.2731%
- Change in mass, Desorption ([3]; Target % P/P0 70.0): 0.3743%
- Change in mass, Hysteresis ([3]; Target % P/P0 70.0): 0.0320%
- Change in mass, Sorption ([3]; Target % P/P0 70.0): 0.3423%
- Change in mass, Desorption ([3]; Target % P/P0 80.0): 0.4565%
- Change in mass, Hysteresis ([3]; Target % P/P0 80.0): 0.0228%
- Change in mass, Sorption ([3]; Target % P/P0 80.0): 0.4336%
- Change in mass, Desorption ([3]; Target % P/P0 90.0): 0.6040%
- Change in mass, Sorption ([3]; Target % P/P0 90.0): 0.6040%
- Hygroscopicity; form change [3]: no change

Structure (SMILES): CC(C)c1nc(-c2cnc(N)c(OC(F)(F)F)c2)cn1C12CC(N3CCOCC3)(C1)C2.O=C(O)CCC(=O)O [Example 10, 5-(2-isopropyl-1-(3-morpholinobicyclo[1.1.1]pentan-1-yl)-1H-imidazol-4-yl)-3-(trifluoromethoxy)pyridin-2-amine hydrogen succinate]
- XRPD change? ([1]; 40° C., 75% RH): no
- purity ([1]; 40° C., 75% RH): 100%
- XRPD change? ([1]; 50° C.): no
- purity ([1]; 50° C.): 100%
- initial purity [1]: 99.74%
- XRPD change? ([1]; light): no (2)
- purity ([1]; light): 99.74%
- solubility at 24 h [2, 4]: 7080 µg/mL
- solubility at 24 h [2, 5]: 72.2 µg/mL
- solubility at 24 h [2, 6]: 642 µg/mL
- FaSSIF pH after 24 h ([2]; FaSSIF): 5.92
- FeSSIF pH after 24 h ([2]; FeSSIF): 4.88
- SGF pH after 24 h ([2]; SGF): 3.71
- Maximum sorption [3]: 0.30%
- Hygroscopicity (0-40% RH) [3]: 0.05%
- Hygroscopicity (0-90% RH) [3]: 0.3%
- Change in mass, Desorption ([3]; Target % P/P0 0.0): 0.0514%
- Change in mass, Sorption ([3]; Target % P/P0 0.0): 0.0000%
- Change in mass, Desorption ([3]; Target % P/P0 10.0): 0.0647%
- Change in mass, Hysteresis ([3]; Target % P/P0 10.0): 0.0496%
- Change in mass, Sorption ([3]; Target % P/P0 10.0): 0.0151%
- Change in mass, Desorption ([3]; Target % P/P0 20.0): 0.0727%
- Change in mass, Hysteresis ([3]; Target % P/P0 20.0): 0.0487%
- Change in mass, Sorption ([3]; Target % P/P0 20.0): 0.0239%
- Change in mass, Desorption ([3]; Target % P/P0 30.0): 0.0930%
- Change in mass, Hysteresis ([3]; Target % P/P0 30.0): 0.0611%
- Change in mass, Sorption ([3]; Target % P/P0 30.0): 0.0319%
- Change in mass, Desorption ([3]; Target % P/P0 40.0): 0.1081%
- Change in mass, Hysteresis ([3]; Target % P/P0 40.0): 0.0549%
- Change in mass, Sorption ([3]; Target % P/P0 40.0): 0.0532%
- Change in mass, Desorption ([3]; Target % P/P0 50.0): 0.1267%
- Change in mass, Hysteresis ([3]; Target % P/P0 50.0): 0.0541%
- Change in mass, Sorption ([3]; Target % P/P0 50.0): 0.0727%
- Change in mass, Desorption ([3]; Target % P/P0 60.0): 0.1489%
- Change in mass, Hysteresis ([3]; Target % P/P0 60.0): 0.0514%
- Change in mass, Sorption ([3]; Target % P/P0 60.0): 0.0975%
- Change in mass, Desorption ([3]; Target % P/P0 70.0): 0.1790%
- Change in mass, Hysteresis ([3]; Target % P/P0 70.0): 0.0523%
- Change in mass, Sorption ([3]; Target % P/P0 70.0): 0.1267%
- Change in mass, Desorption ([3]; Target % P/P0 80.0): 0.2233%
- Change in mass, Hysteresis ([3]; Target % P/P0 80.0): 0.0292%
- Change in mass, Sorption ([3]; Target % P/P0 80.0): 0.1941%
- Change in mass, Desorption ([3]; Target % P/P0 90.0): 0.3013%
- Change in mass, Sorption ([3]; Target % P/P0 90.0): 0.3013%
- Hygroscopicity; form change [3]: no change

Structure (SMILES): CC(C)c1nc(-c2cnc(N)c(OC(F)(F)F)c2)cn1C12CC(N3CCOCC3)(C1)C2.O=C(O)/C=C\C(=O)O [Example 9, 5-(2-isopropyl-1-(3-morpholinobicyclo[1.1.1]pentan-1-yl)-1H-imidazol-4-yl)-3-(trifluoromethoxy)pyridin-2-amine hydrogen maleate]
- XRPD change? ([1]; 40° C., 75% RH): no
- purity ([1]; 40° C., 75% RH): 99.87%
- XRPD change? ([1]; 50° C.): no
- purity ([1]; 50° C.): 99.89%
- initial purity [1]: 99.83%
- XRPD change? ([1]; light): no
- purity ([1]; light): 99.79%
- solubility at 24 h [2, 4]: 13400 µg/mL
- solubility at 24 h [2, 5]: 113 µg/mL
- solubility at 24 h [2, 6]: 565 µg/mL
- FaSSIF pH after 24 h ([2]; FaSSIF): 5.65
- FeSSIF pH after 24 h ([2]; FeSSIF): 4.90
- SGF pH after 24 h ([2]; SGF): 3.26
- Maximum sorption [3]: 0.27%
- Hygroscopicity (0-40% RH) [3]: 0.07%
- Hygroscopicity (0-90% RH) [3]: 0.27%
- Change in mass, Desorption ([3]; Target % P/P0 0.0): −0.0030%
- Change in mass, Sorption ([3]; Target % P/P0 0.0): 0.0000%
- Change in mass, Desorption ([3]; Target % P/P0 10.0): 0.0196%
- Change in mass, Hysteresis ([3]; Target % P/P0 10.0): 0.0015%
- Change in mass, Sorption ([3]; Target % P/P0 10.0): 0.0181%
- Change in mass, Desorption ([3]; Target % P/P0 20.0): 0.0354%
- Change in mass, Hysteresis ([3]; Target % P/P0 20.0): 0.0038%
- Change in mass, Sorption ([3]; Target % P/P0 20.0): 0.0317%
- Change in mass, Desorption ([3]; Target % P/P0 30.0): 0.0573%
- Change in mass, Hysteresis ([3]; Target % P/P0 30.0): 0.0151%
- Change in mass, Sorption ([3]; Target % P/P0 30.0): 0.0422%
- Change in mass, Desorption ([3]; Target % P/P0 40.0): 0.0747%
- Change in mass, Hysteresis ([3]; Target % P/P0 40.0): 0.0090%
- Change in mass, Sorption ([3]; Target % P/P0 40.0): 0.0656%
- Change in mass, Desorption ([3]; Target % P/P0 50.0): 0.0950%
- Change in mass, Hysteresis ([3]; Target % P/P0 50.0): 0.0136%
- Change in mass, Sorption ([3]; Target % P/P0 50.0): 0.0814%
- Change in mass, Desorption ([3]; Target % P/P0 60.0): 0.1199%
- Change in mass, Hysteresis ([3]; Target % P/P0 60.0): 0.0158%
- Change in mass, Sorption ([3]; Target % P/P0 60.0): 0.1041%
- Change in mass, Desorption ([3]; Target % P/P0 70.0): 0.1516%
- Change in mass, Hysteresis ([3]; Target % P/P0 70.0): 0.0189%
- Change in mass, Sorption ([3]; Target % P/P0 70.0): 0.1327%
- Change in mass, Desorption ([3]; Target % P/P0 80.0): 0.1938%
- Change in mass, Hysteresis ([3]; Target % P/P0 80.0): 0.0151%
- Change in mass, Sorption ([3]; Target % P/P0 80.0): 0.1787%
- Change in mass, Desorption ([3]; Target % P/P0 90.0): 0.2655%
- Change in mass, Sorption ([3]; Target % P/P0 90.0): 0.2655%
- Hygroscopicity; form change [3]: no change
